US11078216B2, “Bisaryl amides as NRF2 activators” (GLAXOSMITHKLINE INTELLECTUAL PROPERTY DEVELOPMENT LIMITED, priority 2016, dated 2021)

What follows are molecules tested on NRF2 (NQO1 activity as marker for NRF2 activation), BEAS-2B cells (assay: BEAS-2B NQO1 MTT Assay). Settings: Homo sapiens, EC50 of NQO1 specific activity induction, 48 hours incubation, read-out: EC50.
Assay type: cell-based
Text: NAD(P)H:quinone oxidoreductase 1 (NQO1), also called DT diaphorase, is a homodimeric FAD-containing enzyme that catalyzes obligatory NAD(P)H-dependent two-electron reductions of quinones and protects cells against the toxic and neoplastic effects of free radicals and reactive oxygen species arising from one-electron reductions. The transcription of NQO1 is finely regulated by NRF2, and thus NQO1 activity is a good marker for NRF2 activation. On day one, frozen BEAS-2B cells (ATCC) are thawed in a water bath, counted, and re-suspended at a concentration of 250,000 cells/mL. Fifty microliters of cells are plated in 384 well black clear-bottomed plates. Plates are incubated at 37° C., 5% CO2 overnight. On day two, plates are centrifuged and 50 nL of compound or controls are added to the cells. Plates are then incubated at 37° C., 5% CO2 for 48 hours. On day four, medium is aspirated from the plate and crude cell lysates are made by adding 13 uL of 1× Cell Signaling Technologies lysis buffer with 1 Complete, Mini, EDTA-free Protease Inhibitor Tablet (Roche) for each 10 mL of lysis buffer. After lysis plates are incubated for 20 minutes at room temperature. Two microliters of lysate are removed for use in Cell Titer Glo assay (Promega) and MTT cocktail is prepared (Prochaska et. al. 1998) for measurement of NQO1 activity. Fifty microliters of MTT cocktail is added to each well, plate is centrifuged, and analyzed on an Envision plate reader (Perkin Elmer) using Absorbance 570 nm label for 30 minutes. Product formation is measured kinetically and the EC50 of NQO1 specific activity induction is calculated by plotting the change in absorbance (Delta OD/min) versus the log of compound concentration followed by 3-parameter fitting.
EC50s<1 nM (+++++), EC50s 1 nM-10 nM (++++), EC50s 10 nM-100 nM (+++), EC50s 100 nM-1 uM (++), EC50s 1-10 uM (+), EC50s>10 uM (−), or were not determined (ND).

First: CC[C@@H]1CN(Cc2cc(C(CC(=O)Nc3cccnc3)c3ccc(C#N)cc3C)ccc2C)S(=O)(=O)c2cccnc2O1 (single isomer, unassigned) [Example 69]
Second: CC[C@@H]1CN(Cc2cc([C@H](CC(=O)Nc3cccnc3)c3ccc4c(nnn4CC)c3C)ccc2C)S(=O)(=O)c2cccnc2O1 [Example 1, (S)-3-(3-(((R)-4-Ethyl-1,1-dioxido-3,4-dihydro-2H-pyrido[2,3-b][1,4,5]oxathiazepin-2-yl)methyl)-4-methylphenyl)-3-(1-ethyl-4-methyl-1H-benzo[d][1,2,3]triazol-5-yl)-N-(pyridin-3-yl)propanamide]
The EC50 of the first is higher: 100 to 1000 nM for the first, 10 to 100 nM for the second. The second is the more potent here.

First: CC[C@@H]1CN(Cc2cc([C@H](CC(=O)Nc3cnsc3)c3ccc4c(nnn4CC)c3C)ccc2C)S(=O)(=O)c2cccnc2O1 [Example 2, (S)-3-(3-(((R)-4-Ethyl-1,1-dioxido-3,4-dihydro-2H-pyrido[2,3-b][1,4,5]oxathiazepin-2-yl)methyl)-4-methylphenyl)-3-(1-ethyl-4-methyl-1H-benzo[d][1,2,3]triazol-5-yl)-N-(isothiazol-4-yl)propanamide]
Second: CC[C@@H]1CN(Cc2cc([C@H](CC(=O)Nc3ccc(C)nc3)c3ccc4c(nnn4CC)c3C)ccc2C)S(=O)(=O)c2cccnc2O1 [Example 15, (S)-3-(3-(((R)-4-Ethyl-1,1-dioxido-3,4-dihydro-2H-pyrido[2,3-b][1,4,5]oxathiazepin-2-yl)methyl)-4-methylphenyl)-3-(1-ethyl-4-methyl-1H-benzo[d][1,2,3]triazol-5-yl)-N-(6-methylpyridin-3-yl)propanamide]
The EC50 of the first is lower: 10 to 100 nM for the first, 100 to 1000 nM for the second. The first is the more potent here.

`CC[C@@H]1CN(Cc2cc([C@H](CC(=O)NCc3ncco3)c3ccc4c(nnn4CC)c3C)ccc2C)S(=O)(=O)c2cccnc2O1` [Example 3, (S)-3-(3-(((R)-4-Ethyl-1,1-dioxido-3,4-dihydro-2H-pyrido[2,3-b][1,4,5]oxathiazepin-2-yl)methyl)-4-methylphenyl)-3-(1-ethyl-4-methyl-1H-benzo[d][1,2,3]triazol-5-yl)-N-(oxazol-2-ylmethyl)propanamide] and `CC[C@@H]1CN(Cc2cc([C@H](CC(=O)NCc3ncc[nH]3)c3ccc4c(nnn4CC)c3C)ccc2C)S(=O)(=O)c2cccnc2O1` [Example 8, (S)-N-((1H-Imidazol-2-yl)methyl)-3-(3-(((R)-4-ethyl-1,1-dioxido-3,4-dihydro-2H-pyrido[2,3-b][1,4,5]oxathiazepin-2-yl)methyl)-4-methylphenyl)-3-(1-ethyl-4-methyl-1H-benzo[d][1,2,3]triazol-5-yl)propanamide] fall in the same range of EC50: 100 to 1000 nM for the first, 100 to 1000 nM for the second.

`CC[C@@H]1CN(Cc2cc([C@H](CC(=O)NC3COC3)c3ccc4c(nnn4CC)c3C)ccc2C)S(=O)(=O)c2cccnc2O1` [Example 4, (S)-3-(3-(((R)-4-Ethyl-1,1-dioxido-3,4-dihydro-2H-pyrido[2,3-b][1,4,5]oxathiazepin-2-yl)methyl)-4-methylphenyl)-3-(1-ethyl-4-methyl-1H-benzo[d][1,2,3]triazol-5-yl)-N-(oxetan-3-yl)propanamide] and `CC[C@@H]1CN(Cc2cc([C@H](CC(=O)NC3CCS(=O)(=O)C3)c3ccc4c(nnn4CC)c3C)ccc2C)S(=O)(=O)c2cccnc2O1` (stereo partly drawn) [Example 5, (3S)-N-(1,1-Dioxidotetrahydrothiophen-3-yl)-3-(3-(((R)-4-ethyl-1,1-dioxido-3,4-dihydro-2H-pyrido[2,3-b][1,4,5]oxathiazepin-2-yl)methyl)-4-methylphenyl)-3-(1-ethyl-4-methyl-1H-benzo[d][1,2,3]triazol-5-yl)propanamide] fall in the same range of EC50: 100 to 1000 nM for the first, 100 to 1000 nM for the second.

`CC[C@@H]1CN(Cc2cc([C@H](CC(=O)n3ccc(N)n3)c3ccc4c(nnn4CC)c3C)ccc2C)S(=O)(=O)c2cccnc2O1` [Example 6, (S)-1-(3-Amino-1H-pyrazol-1-yl)-3-(3-(((R)-4-ethyl-1,1-dioxido-3,4-dihydro-2H-pyrido[2,3-b][1,4,5]oxathiazepin-2-yl)methyl)-4-methylphenyl)-3-(1-ethyl-4-methyl-1H-benzo[d][1,2,3]triazol-5-yl)propan-1-one] and `CC[C@@H]1CN(Cc2cc([C@H](CC(=O)n3nccc3N)c3ccc4c(nnn4CC)c3C)ccc2C)S(=O)(=O)c2cccnc2O1` [Example 7, (S)-1-(5-Amino-1H-pyrazol-1-yl)-3-(3-(((R)-4-ethyl-1,1-dioxido-3,4-dihydro-2H-pyrido[2,3-b][1,4,5]oxathiazepin-2-yl)methyl)-4-methylphenyl)-3-(1-ethyl-4-methyl-1H-benzo[d][1,2,3]triazol-5-yl)propan-1-one] fall in the same range of EC50: 1 to 10 nM for the first, 1 to 10 nM for the second.

`CC[C@@H]1CN(Cc2cc([C@H](CC(=O)Nc3ccnn3C)c3ccc4c(nnn4CC)c3C)ccc2C)S(=O)(=O)c2cccnc2O1` [Example 9, (S)-3-(3-(((R)-4-Ethyl-1,1-dioxido-3,4-dihydro-2H-pyrido[2,3-b][1,4,5]oxathiazepin-2-yl)methyl)-4-methylphenyl)-3-(1-ethyl-4-methyl-1H-benzo[d][1,2,3]triazol-5-yl)-N-(1-methyl-1H-pyrazol-5-yl)propanamide] and `CC[C@@H]1CN(Cc2cc([C@H](CC(=O)Nc3nccn3C)c3ccc4c(nnn4CC)c3C)ccc2C)S(=O)(=O)c2cccnc2O1` [Example 17, (S)-3-(3-(((R)-4-Ethyl-1,1-dioxido-3,4-dihydro-2H-pyrido[2,3-b][1,4,5]oxathiazepin-2-yl)methyl)-4-methylphenyl)-3-(1-ethyl-4-methyl-1H-benzo[d][1,2,3]triazol-5-yl)-N-(1-methyl-1H-imidazol-2-yl)propanamide] fall in the same range of EC50: 100 to 1000 nM for the first, 100 to 1000 nM for the second.

First: CC[C@@H]1CN(Cc2cc([C@H](CC(=O)Nc3cnccc3C)c3ccc4c(nnn4CC)c3C)ccc2C)S(=O)(=O)c2cccnc2O1 [Example 10, (S)-3-(3-(((R)-4-Ethyl-1,1-dioxido-3,4-dihydro-2H-pyrido[2,3-b][1,4,5]oxathiazepin-2-yl)methyl)-4-methylphenyl)-3-(1-ethyl-4-methyl-1H-benzo[d][1,2,3]triazol-5-yl)-N-(4-methylpyridin-3-yl)propanamide]
Second: CC[C@@H]1CN(Cc2cc([C@H](CC(=O)Nc3cnccc3OC)c3ccc4c(nnn4CC)c3C)ccc2C)S(=O)(=O)c2cccnc2O1 [Example 11, (S)-3-(3-(((R)-4-Ethyl-1,1-dioxido-3,4-dihydro-2H-pyrido[2,3-b][1,4,5]oxathiazepin-2-yl)methyl)-4-methylphenyl)-3-(1-ethyl-4-methyl-1H-benzo[d][1,2,3]triazol-5-yl)-N-(4-methoxypyridin-3-yl)propanamide]
The EC50 of the first is higher: 100 to 1000 nM for the first, 10 to 100 nM for the second.

First: CC[C@@H]1CN(Cc2cc([C@H](CC(=O)Nc3cncc(C(F)(F)F)c3)c3ccc4c(nnn4CC)c3C)ccc2C)S(=O)(=O)c2cccnc2O1 [Example 12, (S)-3-(3-(((R)-4-Ethyl-1,1-dioxido-3,4-dihydro-2H-pyrido[2,3-b][1,4,5]oxathiazepin-2-yl)methyl)-4-methylphenyl)-3-(1-ethyl-4-methyl-1H-benzo[d][1,2,3]triazol-5-yl)-N-(5-(trifluoromethyl)pyridin-3-yl)propanamide]
Second: CC[C@@H]1CN(Cc2cc([C@H](CC(=O)Nc3ccc(C(F)(F)F)nc3)c3ccc4c(nnn4CC)c3C)ccc2C)S(=O)(=O)c2cccnc2O1 [Example 14, (S)-3-(3-(((R)-4-Ethyl-1,1-dioxido-3,4-dihydro-2H-pyrido[2,3-b][1,4,5]oxathiazepin-2-yl)methyl)-4-methylphenyl)-3-(1-ethyl-4-methyl-1H-benzo[d][1,2,3]triazol-5-yl)-N-(6-(trifluoromethyl)pyridin-3-yl)propanamide]
The EC50 of the first is lower: 10 to 100 nM for the first, 100 to 1000 nM for the second. The first is the more potent here.

`CC[C@@H]1CN(Cc2cc([C@H](CC(=O)Nc3cncc(OC)c3)c3ccc4c(nnn4CC)c3C)ccc2C)S(=O)(=O)c2cccnc2O1` [Example 13, (S)-3-(3-(((R)-4-Ethyl-1,1-dioxido-3,4-dihydro-2H-pyrido[2,3-b][1,4,5]oxathiazepin-2-yl)methyl)-4-methylphenyl)-3-(1-ethyl-4-methyl-1H-benzo[d][1,2,3]triazol-5-yl)-N-(5-methoxypyridin-3-yl)propanamide] and `CC[C@@H]1CN(Cc2cc([C@H](CC(=O)Nc3cncc4ccccc34)c3ccc4c(nnn4CC)c3C)ccc2C)S(=O)(=O)c2cccnc2O1` [Example 18, (S)-3-(3-(((R)-4-Ethyl-1,1-dioxido-3,4-dihydro-2H-pyrido[2,3-d][1,4,5]oxathiazepin-2-yl)methyl)-4-methylphenyl)-3-(1-ethyl-4-methyl-1H-benzo[d][1,2,3]triazol-5-yl)-N-(isoquinolin-4-yl)propanamide] fall in the same range of EC50: 10 to 100 nM for the first, 10 to 100 nM for the second.

With `CC[C@@H]1CN(Cc2cc([C@H](CC(=O)NCc3nccn3C)c3ccc4c(nnn4CC)c3C)ccc2C)S(=O)(=O)c2cccnc2O1` [Example 16, (S)-3-(3-(((R)-4-Ethyl-1,1-dioxido-3,4-dihydro-2H-pyrido[2,3-b][1,4,5]oxathiazepin-2-yl)methyl)-4-methylphenyl)-3-(1-ethyl-4-methyl-1H-benzo[d][1,2,3]triazol-5-yl)-N-((1-methyl-1H-imidazol-2-yl)methyl)propanamide] the EC50 was 1000 to 10000 nM.
